Reference: article PMC11189555, “Aryl amino acetamides prevent Plasmodium falciparum ring development via targeting the lipid-transfer protein PfSTART1” (Nature Communications, 2024)
Values joined by “and” are separate entries in the source; they are usually repeats but may differ in a detail not shown here. Equal entries are not always repeated.

Tested on: 3D7 P. falciparum parasites
Test: Growth inhibition assay (72 h, LDH activity)
Type: cell-based, Plasmodium falciparum
Conditions: for (av-uRBC) / (DMSO-uRBC) x100: 3D7
Experimental: Parasite growth assays with inhibitory compounds were performed as per[11] and are fully described in the Supplementary Information. […]
Growth inhibition assays. Synchronised ring-stage parasites (0.3-0.6% parasitemia, 2% haematocrit) were grown for 72 h in a serial-dilution of the compound under […]
and compound 4. Note that M-833 was first purchased from MolPort (MolPort -002-267-916) then made in-house at WEHI: the differences observed in EC50s across experiments are attributed to the different batches of M -833. For some experiments, 0, 0.25 or 2.5 mM of glucosamine (GlcN) was also added. Experiments were set up in technical duplicates or triplicates. Following a freeze -thaw cycle, lactate dehydrogenase (LDH) activity was assessed as an indicator of parasite growt h 5. 30 μL of parasite culture was incubated for 30 min in the dark with 75 μL Malstat mixture (0.1 M Tris pH 9.0, 20 g/L lactic acid, pH 7.5, 0.2% Triton-X100, 0.5 g/L acetylpyridine adenine dinucleotide (APAD, Sigma), 200 μg/mL nitroblue tetrazolium (NBT; Sigma), 1 μg/mL phenozine ethosulfate (PES; Sigma)). Absorbance was then measured at 650 nm, transformed using the formula below, plotted against the logarithm of the concentrations, and a non-linear regression (log(inhibitor) vs. response, variable slope) was calculated using GraphPad Prism to assess the half-inhibitory […]
Growth inhibition % = (1 − average(sample)− average(uRBC)) ∗ 100 […]
The DMSO samples were also used to assess growth of parasite in the presence of 0.25 and 2.5 mM GlcN (normalised by DMSO in 0 mM GlcN). […]

## Cc1cc(Cl)c(S(=O)(=O)N2CCCC2)cc1OCC(=O)NC1CCCCC1 [M-833]
3D7, 0 mM GlcN, M-833 0.000508053 uM, biological replicates 1-3
  sample/DMSO (growth inhibition vs DMSO, LDH): 0.3955
3D7, 0 mM GlcN, M-833 0.00152416 uM, biological replicates 1-4
  sample/DMSO (growth inhibition vs DMSO, LDH): 3.899 and 0.6135 and 1.269 and -5.021
3D7, 0 mM GlcN, M-833 0.00457247 uM, biological replicates 1-4
  sample/DMSO (growth inhibition vs DMSO, LDH): 7.9783 and -0.1897 and 1.9685 and -5.962
3D7, 0 mM GlcN, M-833 0.0137174 uM, biological replicates 1-4
  sample/DMSO (growth inhibition vs DMSO, LDH): 6.577 and 0.4933 and 7.305 and 4.539
3D7, 0 mM GlcN, M-833 0.0411523 uM, biological replicates 1-4
  sample/DMSO (growth inhibition vs DMSO, LDH): 17.0189 and 4.351 and 25.6124 and 2.634
3D7, 0 mM GlcN, M-833 0.123457 uM, biological replicates 1-4
  sample/DMSO (growth inhibition vs DMSO, LDH): 41.0894 and 22.2426 and 56.6492 and 25.1037
3D7, 0 mM GlcN, M-833 0.37037 uM, biological replicates 1-4
  sample/DMSO (growth inhibition vs DMSO, LDH): 84.744 and 69.3587 and 86.7673 and 75.1317
3D7, 0 mM GlcN, M-833 1.11111 uM, biological replicates 1-4
  sample/DMSO (growth inhibition vs DMSO, LDH): 95.6718 and 89.236 and 91.7104 and 88.7258
3D7, 0 mM GlcN, M-833 3.33333 uM, biological replicates 1-4
  sample/DMSO (growth inhibition vs DMSO, LDH): 96.655 and 91.1143 and 93.0446 and 90.6646
3D7, 0 mM GlcN, conc 13.7174 nM
  Growth inhibition assay, NORMALISED: 13.0746
3D7, 0 mM GlcN, conc 41.1523 nM
  Growth inhibition assay, NORMALISED: 31.4939
3D7, 0 mM GlcN, conc 123.457 nM
  Growth inhibition assay, NORMALISED: 59.8439
3D7, 0 mM GlcN, conc 370.37 nM
  Growth inhibition assay, NORMALISED: 84.7029
3D7, 0 mM GlcN, conc 1111.11 nM
  Growth inhibition assay, NORMALISED: 90.8825
3D7, 0 mM GlcN, conc 3333.33 nM
  Growth inhibition assay, NORMALISED: 92.758
3D7, 0 mM GlcN, conc 10000 nM
  Growth inhibition assay, NORMALISED: 93.376
3D7, 0.25 mM GlcN, M-833 0.000508053 uM, biological replicates 1-3
  sample/DMSO (growth inhibition vs DMSO, LDH): 3.472 and 0.2055
3D7, 0.25 mM GlcN, M-833 0.00152416 uM, biological replicates 1-4
  sample/DMSO (growth inhibition vs DMSO, LDH): 7.594 and 1.781 and -0.4107 and -3.683
3D7, 0.25 mM GlcN, M-833 0.00457247 uM, biological replicates 1-4
  sample/DMSO (growth inhibition vs DMSO, LDH): 11.6683 and 13.0152 and -3.5254 and -4.48
3D7, 0.25 mM GlcN, M-833 0.0137174 uM, biological replicates 1-4
  sample/DMSO (growth inhibition vs DMSO, LDH): 18.8525 and 10.2866 and 0.5749 and 7.343
3D7, 0.25 mM GlcN, M-833 0.0411523 uM, biological replicates 1-4
  sample/DMSO (growth inhibition vs DMSO, LDH): 37.8978 and 20.6188 and 3.974 and 3.155
3D7, 0.25 mM GlcN, M-833 0.123457 uM, biological replicates 1-4
  sample/DMSO (growth inhibition vs DMSO, LDH): 60.1495 and 44.3886 and 19.2191 and 24.7586
3D7, 0.25 mM GlcN, M-833 0.37037 uM, biological replicates 1-4
  sample/DMSO (growth inhibition vs DMSO, LDH): 90.2604 and 84.0393 and 70.7607 and 72.7038
3D7, 0.25 mM GlcN, M-833 1.11111 uM, biological replicates 1-4
  sample/DMSO (growth inhibition vs DMSO, LDH): 94.6962 and 95.3762 and 89.746 and 88.7379
3D7, 0.25 mM GlcN, M-833 3.33333 uM, biological replicates 1-4
  sample/DMSO (growth inhibition vs DMSO, LDH): 94.1176 and 95.9927 and 91.6288 and 90.366
3D7, 0.25 mM GlcN, conc 123.457 nM
  Growth inhibition assay, NORMALISED: 65.6199 and 63.1151
3D7, 0.25 mM GlcN, conc 370.37 nM
  Growth inhibition assay, NORMALISED: 87.6963 and 91.9897
3D7, 0.25 mM GlcN, conc 1111.11 nM
  Growth inhibition assay, NORMALISED: 93.5707 and 96.2430
3D7, 0.25 mM GlcN, conc 3333.33 nM
  Growth inhibition assay, NORMALISED: 94.9648 and 97.4583
3D7, 0.25 mM GlcN, conc 10000 nM
  Growth inhibition assay, NORMALISED: 98.3055 and 95.804
3D7, 2.5 mM GlcN, M833 dilution point 1 of 10 (starting concentration 10 uM)
  NORMALISED (growth inhibition, LDH absorbance vs DMSO and uRBC): 96.8148 and 98.7231 and 95.2456
3D7, 2.5 mM GlcN, M833 dilution point 2 of 10 from 10 uM start
  NORMALISED (growth inhibition, LDH absorbance vs DMSO and uRBC): 95.7251 and 93.6187 and 97.3100
3D7, 2.5 mM GlcN, M833 dilution point 3 of 10 from 10 uM start
  NORMALISED (growth inhibition, LDH absorbance vs DMSO and uRBC): 96.9824 and 90.9335 and 96.6034
3D7, 2.5 mM GlcN, M833 dilution point 4 of 10 from 10 uM start
  NORMALISED (growth inhibition, LDH absorbance vs DMSO and uRBC): 93.881 and 84.8839 and 92.4066
3D7, 2.5 mM GlcN, M833 dilution point 5 of 10 from 10 uM start
  NORMALISED (growth inhibition, LDH absorbance vs DMSO and uRBC): 83.487 and 63.7656 and 70.6904
3D7, 2.5 mM GlcN, M-833 0.000508053 uM, biological replicates 1-3
  sample/DMSO (growth inhibition vs DMSO, LDH): -0.6607
3D7, 2.5 mM GlcN, M-833 0.00152416 uM, biological replicates 1-4
  sample/DMSO (growth inhibition vs DMSO, LDH): -1.11 and -0.7648 and -1.644 and -5.451
3D7, 2.5 mM GlcN, M-833 0.00457247 uM, biological replicates 1-4
  sample/DMSO (growth inhibition vs DMSO, LDH): 2.378 and 5.032 and -5.671 and -4.085
3D7, 2.5 mM GlcN, M-833 0.0137174 uM, biological replicates 1-4
  sample/DMSO (growth inhibition vs DMSO, LDH): 17.2304 and 4.206 and -1.672 and 24.2341
3D7, 2.5 mM GlcN, M-833 0.0411523 uM, biological replicates 1-4
  sample/DMSO (growth inhibition vs DMSO, LDH): 38.9006 and 17.4059 and 1.86 and 27.5421
3D7, 2.5 mM GlcN, M-833 0.123457 uM, biological replicates 1-4
  sample/DMSO (growth inhibition vs DMSO, LDH): 56.4218 and 44.1266 and 25.1289 and 54.0055
3D7, 2.5 mM GlcN, M-833 0.37037 uM, biological replicates 1-4
  sample/DMSO (growth inhibition vs DMSO, LDH): 86.8658 and 83.833 and 67.9393 and 76.787
3D7, 2.5 mM GlcN, M-833 1.11111 uM, biological replicates 1-4
  sample/DMSO (growth inhibition vs DMSO, LDH): 92.389 and 94.7232 and 88.5258 and 88.1778
3D7, 2.5 mM GlcN, M-833 3.33333 uM, biological replicates 1-4
  sample/DMSO (growth inhibition vs DMSO, LDH): 94.0803 and 95.4726 and 90.5741 and 88.9113
3D7, M-833 0.0390625 uM
  Growth (Abs) Normalised to DMSO: 98.5985
3D7, M-833 0.078125 uM
  Growth (Abs) Normalised to DMSO: 87.6094
3D7, M-833 0.15625 uM
  Growth (Abs) Normalised to DMSO: 73.0137
3D7, M-833 0.3125 uM
  Growth (Abs) Normalised to DMSO: 46.3221
3D7, M-833 0.625 uM
  Growth (Abs) Normalised to DMSO: 13.1941
3D7, M-833 1.25 uM
  Growth (Abs) Normalised to DMSO: 5.1955
3D7, M-833 2.5 uM
  Growth (Abs) Normalised to DMSO: 3.473
3D7, M-833 5 uM
  Growth (Abs) Normalised to DMSO: 2.75
3D7, M-833 10 uM
  Growth (Abs) Normalised to DMSO: 1.893
conc. 3.04832 nM, Biological replicate 1 (2021-10-25)
  (av-uRBC) / (DMSO-uRBC) x100: 99.6118
conc. 3.04832 nM, Biological replicate 2 (2021-11-03)
  (av-uRBC) / (DMSO-uRBC) x100: 102.365
conc. 9.14495 nM, Biological replicate 1 (2021-10-25)
  (av-uRBC) / (DMSO-uRBC) x100: 98.5673
conc. 9.14495 nM, Biological replicate 2 (2021-11-03)
  (av-uRBC) / (DMSO-uRBC) x100: 104.012
conc. 27.4348 nM, Biological replicate 1 (2021-10-25)
  (av-uRBC) / (DMSO-uRBC) x100: 97.1981
conc. 27.4348 nM, Biological replicate 2 (2021-11-03)
  (av-uRBC) / (DMSO-uRBC) x100: 104.176
conc. 82.3045 nM, Biological replicate 1 (2021-10-25)
  (av-uRBC) / (DMSO-uRBC) x100: 86.0541
